Measurements from paper PMC5587766, “Towards designer organelles by subverting the peroxisomal import pathway” (Nature Communications, 2017).
Each block holds one molecule with its values, some of them ahead of it. The star is where a group is joined. Dansyl = CN(C)c1cccc2c(S(=O)(=O)*)cccc12

Key:
[1] = test system: naturally occurring PEX5 receptor; assay: PEX5 (naturally occurring receptor) binding of orthogonal peptide (overall statement)
Excerpt: PEX5 is a modular protein: the C-terminal domain recognizes PTS1 within a funnel-shaped pocket created by 7 α-helical tetratricopeptide repeats (TPRs)[14], while the N-terminal domain of PEX5, which is natively unstructured, is responsible for the docking, cargo delivery, and recycling functions of the receptor[10]. […] The PEX5*-PTS1* pair was discovered by assessing the binding of a range of variants of the C-terminal domain of Arabidopsis thaliana PEX5 (AtPEX5C) with a library of pentapeptides (Fig. 1a). […] PTS1* has low affinity for the naturally occurring PEX5 receptor. Following optimization, the C-terminal PEX5* sequence was combined with the N-terminal domain of PEX5 from the moss Physcomitrella patens (Phypa PEX5N) to create a fully functional PEX5* receptor (Fig. 1a). Concomitant expression of PEX5* with a cargo protein bearing PTS1* results in targeting of the cargo to the peroxisome at the expense of naturally occurring peroxisomal components—a process that was easily visualized in moss cells using fluorescent reporter proteins (Fig. 1b).

[2] = molecular target: AtPEX5 TPR domain; conditions: cited from earlier work
Excerpt: The pentapeptide library sequences were based on YQSKL, which has a nM affinity for the AtPEX5 TPR domain[17] and is widely used as a model PTS1 peptide. This sequence was randomized at the two C-terminal positions to create a library of sequences, YQSXX, where X represents any amino acid, which was efficiently prepared using split-and-pool solid-phase peptide synthesis. A dansyl fluorophore introduced at the N-terminus of the peptide added hydrophobicity to improve retention in LC-MS analysis. Deconvolution of Leu- and Ile-containing peptides was enabled by preparation of four sub-librari ...

[3] = lissamine-labelled peptide, not pursued in FA assay
[4] = molecular target: T1, AtPEX5C N601A (Arabidopsis thaliana, UniProt Q9FMA3 340-728, N601A); assay: pull-down; His6-protein (12.5 µM) incubated with the combined dansyl-YQSXX library (500 nM each peptide) in 50 mM Na2HPO4, 300 mM NaCl, 10 mM 2-mercaptoethanol, 15% glycerol, pH 8.0, 4 °C, 1 h; captured on Co-NTA resin, washed, bound peptides eluted with 6 M urea and identified by ESI-LC-MS; semi-quantitative; conditions: both partners purified
T1 construct: Made by site-directed mutagenesis of His6-AtPEX5 (340-728) in pET-28b; also called N601A variant; source: E. coli BL21-Gold (DE3), purified (Co-NTA)
T1 sequence (looked up): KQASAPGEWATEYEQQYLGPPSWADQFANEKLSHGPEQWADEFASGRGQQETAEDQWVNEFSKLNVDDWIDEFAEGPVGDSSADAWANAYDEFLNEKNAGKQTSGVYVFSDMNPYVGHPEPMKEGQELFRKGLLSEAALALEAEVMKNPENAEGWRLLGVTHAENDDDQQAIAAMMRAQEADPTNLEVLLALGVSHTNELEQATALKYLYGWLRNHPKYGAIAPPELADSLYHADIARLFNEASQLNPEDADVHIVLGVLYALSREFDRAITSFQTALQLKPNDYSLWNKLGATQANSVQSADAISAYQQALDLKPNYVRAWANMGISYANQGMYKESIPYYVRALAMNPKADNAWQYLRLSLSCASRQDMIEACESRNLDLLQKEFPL

[5] = molecular target: T2, AtPEX5C D505H (Arabidopsis thaliana, UniProt Q9FMA3 340-728, D505H); assay: as above; conditions: both partners purified
T2 construct: Made by site-directed mutagenesis of His6-AtPEX5 (340-728) in pET-28b; also called D505H variant of AtPEX5C; source: E. coli BL21-Gold (DE3), purified (Co-NTA)
T2 sequence (looked up): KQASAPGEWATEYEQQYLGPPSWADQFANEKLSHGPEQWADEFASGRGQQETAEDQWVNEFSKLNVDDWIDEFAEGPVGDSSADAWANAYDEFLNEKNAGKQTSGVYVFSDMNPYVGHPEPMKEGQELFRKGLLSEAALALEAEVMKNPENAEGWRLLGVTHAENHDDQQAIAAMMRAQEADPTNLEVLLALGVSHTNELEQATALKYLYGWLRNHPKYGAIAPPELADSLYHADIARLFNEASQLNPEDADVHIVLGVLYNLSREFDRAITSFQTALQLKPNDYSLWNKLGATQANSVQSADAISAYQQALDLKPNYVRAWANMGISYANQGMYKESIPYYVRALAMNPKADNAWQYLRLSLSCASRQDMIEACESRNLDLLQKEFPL

Molecule: WWRDPYSPMYQSYY [PTS1*, YQSYY including enhancing upstream residues]
- affinity for naturally occurring PEX5 receptor [1]: low affinity

Molecule: YQSKL [model PTS1 peptide]
- affinity for AtPEX5 TPR domain [2]: nM affinity

Molecule: lissamine-labelled YQSFY
- solubility [3]: poor solubility

- binding result [4]: binds
- binding result [5]: binds
B1: dansyl-YQSFY (peptide)
peptide: Dansyl-YQSFY-OH
SMILES: CN(C)c1cccc2c(S(=O)(=O)N[C@@H](Cc3ccc(O)cc3)C(=O)N[C@@H](CCC(N)=O)C(=O)N[C@@H](CO)C(=O)N[C@@H](Cc3ccccc3)C(=O)N[C@@H](Cc3ccc(O)cc3)C(=O)O)cccc12
notes: member of the YQSXX pentapeptide library; Tested within the combined library of 324 peptides, not alone; source: synthetic peptide, member of the split-and-pool dansyl-YQSXX library
